These results are taken from US20230011869A1 (Hoffmann-La Roche Inc., priority 2018, published 2023).

Structures can show the parent of a compound that is named as a salt.

The first assay relates to Acinetobacter baumannii ATCC17978. Briefly: Antimicrobial susceptibility testing: 90% growth inhibitory concentration (IC90) determination, Iso-Sensitest broth. The assay is classed as cell-based. The conditions noted are these: 90% growth inhibitory concentration, Acinetobacter baumannii ATCC17978, Iso-Sensitest broth, OD 600 nm over 16 h; read-out: ATCC17978 IC90. The essentials: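 A. baumannii ATCC17978 grown in Iso-Sensitest broth across 10 compound concentrations at 35±2 °C.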
`COc1ccc(-c2cnc3c(Nc4ccc(C(=O)N5CC6(CNC6)C5)c(C)c4)nccn23)cc1F` [Example 413, 2,6-diazaspiro[3.3]heptan-2-yl-[4-[[3-(3-fluoro-4-methoxyphenyl)imidazo[1,2-a]pyrazin-8-yl]amino]-2-methylphenyl]methanone; for-mic acid]: the IC90 worked out at 770 nM. Consider `COc1ccc(-c2cnc3c(Nc4ccc(C(=O)NC5CC6(CNC6)C5)c(C)c4)nccn23)cc1F` [Example 414, N-(2-azaspiro[3.3]heptan-6-yl)-4-[[3-(3-fluoro-4-methoxyphenyl)imidazo[1,2-a]pyrazin-8-yl]amino]-2-methylbenzamide; hydrochlo-ride], for which the IC90 was determined as 770 nM. On to `COc1ccc(-c2cnc3c(Nc4ccc(C(=O)N5CCC6(CNC6)C5)c(C)c4)nccn23)cc1F` [Example 417, 2,6-diazaspiro[3.4]octan-6-yl-[4-[[3-(3-fluoro-4-methoxyphenyl)imidazo[1,2-a]pyrazin-8-yl]amino]-2-methylphenyl]methanone; hy-drochloride], for which the IC90 worked out at 960 nM. The same measure, in the same setting: as for `COc1ccc(-c2cnc3c(Nc4ccc(C(=O)N5CCC(C(=O)NCCn6ccnc6)CC5)c(C)c4)nccn23)cc1F` [Example 418, 1-[4-[[3-(3-fluoro-4-methoxyphenyl)imidazo[1,2-a]pyrazin-8-yl]amino]-2-methylbenzoyl]-N-(2-imidazol-1-ylethyl)piperidine-4-carboxamide], the figure is 1000 nM. As for `COc1ccc(-c2cnc3c(Nc4ccc(C(=O)N5CCN[C@H](CO)C5)c(C)c4)nccn23)cc1F` [Example 419, [4-[[3-(3-fluoro-4-methoxyphenyl)imidazo[1,2-a]pyrazin-8-yl]amino]-2-methylphenyl]-[(3S)-3-(hydroxymethyl)piperazin-1-yl]methanone], the IC90 is 1000 nM. For the compound `COc1ccc(-c2cnc3c(Nc4ccc(C(=O)N5CCNC(CO)C5)c(C)c4)nccn23)cc1F` (centres unmarked) [Example 422, [4-[[3-(3-fluoro-4-methoxyphenyl)imidazo[1,2-a]pyrazin-8-yl]amino]-2-methylphenyl]-[3-(hydroxymethyl)piperazin-1-yl]methanone], the IC90 stood at 1100 nM.

`COc1ccc(-c2cnc3c(Nc4ccc(C(=O)N5CC[C@@H](N)[C@@H](O)C5)c(C)c4)nccn23)cc1F` [Example 423, [(3S,4R)-4-amino-3-hydroxypiperidin-1-yl]-[4-[[3-(3-fluoro-4-methoxyphenyl)imidazo[1,2-a]pyrazin-8-yl]amino]-2-methylphenyl]methanone; hy-drochloride]: the IC90 was 1100 nM.

Consider `COc1ccc(-c2cnc3c(Nc4ccc(C(=O)N5CCNC(C6CC6)C5)c(C)c4)nccn23)cc1F` (centres unmarked) [Example 424, (3-cyclopropylpiperazin-1-yl)-[4-[[3-(3-fluoro-4-methoxyphenyl)imidazo[1,2-a]pyrazin-8-yl]amino]-2-methylphenyl]methanone; hy-drochloride], for which the IC90 is 1200 nM.

Regarding `COc1ccc(-c2cnc3c(Nc4ccc(C(=O)N5C[C@@H](O)[C@H](O)C5)c(C)c4)nccn23)cc1F` [Example 425, [(3R,4R)-3,4-dihydroxypyrrolidin-1-yl]-[4-[[3-(3-fluoro-4-methoxyphenyl)imidazo[1,2-a]pyrazin-8-yl]amino]-2-methylphenyl]methanone], the IC90 came to 1200 nM. Take `COc1ccc(-c2cnc3c(Nc4ccc(C(=O)N5CCN(C6CC6)CC5)c(C)c4)nccn23)cc1F` [Example 426, (4-cyclopropylpiperazin-1-yl)-[4-[[3-(3-fluoro-4-methoxyphenyl)imidazo[1,2-a]pyrazin-8-yl]amino]-2-methylphenyl]methanone]: the IC90 stood at 1200 nM. For `COc1ccc(-c2cnc3c(Nc4ccc(C(=O)N5CCC(C(=O)NCc6ccc(C(=O)O)cc6)CC5)c(C)c4)nccn23)cc1F` [Example 427, 4-[[[1-[4-[[3-(3-fluoro-4-methoxyphenyl)imidazo[1,2-a]pyrazin-8-yl]amino]-2-methylbenzoyl]piperidine-4-carbonyl]amino]methyl]ben-zoic acid], the IC90 came out at 1200 nM. On the same count and under the same terms, with `Cc1cc(Nc2nccn3c(-c4ccc(O)c(F)c4)cnc23)ccc1C(=O)N1CCC(CN)CC1` [Example 428, [4-(aminomethyl)piperidin-1-yl]-[4-[[3-(3-fluoro-4-hydroxyphenyl)imidazo[1,2-a]pyrazin-8-yl]amino]-2-methylphenyl]methanone] the figure was 1300 nM; with `COc1ccc(-c2cnc3c(Nc4ccc(C(=O)N5CCC(C(=O)N(C)C[C@H](O)[C@@H](O)[C@H](O)[C@H](O)CO)CC5)c(C)c4)nccn23)cc1F` [Example 432, 1-[4-[[3-(3-fluoro-4-methoxyphenyl)imidazo[1,2-a]pyrazin-8-yl]amino]-2-methylbenzoyl]-N-methyl-N-[(2S,3R,4R,5R)-2,3,4,5,6-pentahydroxyhexyl]piperidine-4-carboxamide], 1500 nM; with `COc1ccc(-c2cnc3c(Nc4ccc(C(=O)N5CCC(C(=O)NC6(C(=O)O)CC6)CC5)c(C)c4)nccn23)cc1F` [Example 433, 1-[[1-[4-[[3-(3-fluoro-4-methoxyphenyl)imidazo[1,2-a]pyrazin-8-yl]amino]-2-methylbenzoyl]piperidine-4-carbonyl]amino]cyclopropane-1-carboxylic acid], 1600 nM.

`COc1ccc(-c2cnc3c(Nc4ccc(C(=O)N5CC6(C5)CN(C5CC5)C6)c(C)c4)nccn23)cc1F` [Example 434, (6-cyclopropyl-2,6-diazaspiro[3.3]heptan-2-yl)-[4-[[3-(3-fluoro-4-methoxyphenyl)imidazo[1,2-a]pyrazin-8-yl]amino]-2-methylphenyl]methanone]: the IC90 turned out to be 1800 nM. As for `COc1ccc(-c2cnc3c(Nc4ccc(C(=O)N5CCC(CNCCC(=O)O)CC5)c(C)c4)nccn23)cc1` [Example 435, 3-[[1-[4-[[3-(4-methoxyphenyl)imidazo[1,2-a]pyrazin-8-yl]amino]-2-methylbenzoyl]piperidin-4-yl]methylamino]propanoic acid], the IC90 is 3200 nM. For the compound `Cc1cc(Nc2nccn3c(-c4ccc(OCC#N)c(F)c4F)cnc23)ccc1C(=O)N1CCN(C(=O)N2CCN[C@H](C(=O)O)C2)CC1` [Example 442, (2S)-4-[4-[4-[[3-[4-(cyanomethoxy)-2,3-difluorophenyl]imidazo[1,2-a]pyrazin-8-yl]amino]-2-methylbenzoyl]piperazine-1-carbonyl]piperazine-2-carboxylic acid], the IC90 turned out to be 1200 nM.

Staying with this assay, now noted: Acinetobacter baumannii, ATCC17978, 16 h, read-out: ATCC17978 IC90, 90% growth inhibitory concentration, Acinetobacter baumannii ATCC17978, Iso-Sensitest broth, OD 600 nm over 16 h.
Turning to `COc1ccc(-c2cnc3c(Nc4ccc(C(=O)N5CCNC6(CC6)C5)c(C)c4)nccn23)cc1F` [Example 416, 4,7-diazaspiro[2.5]octan-7-yl-[4-[[3-(3-fluoro-4-methoxyphenyl)imidazo[1,2-a]pyrazin-8-yl]amino]-2-methylphenyl]methanone; 2,2,2-trifluoroacetic acid], the IC90 amounted to 800 nM. Take `COc1ccc(-c2cnc3c(Nc4ccc(C(=O)N5CCC(CNC(CN)C(=O)O)CC5)c(C)c4)nccn23)cc1` (centres unmarked) [Example 420, 3-amino-2-[[1-[4-[[3-(4-methoxyphenyl)imidazo[1,2-a]pyrazin-8-yl]amino]-2-methylbenzoyl]piperidin-4-yl]methylamino]propanoic acid; formic acid]: the IC90 was 1100 nM. With `COc1ccc(-c2cnc3c(Nc4ccc(C(=O)N5CC6(CCN6)C5)c(C)c4)nccn23)cc1F` [Example 421, 1,6-diazaspiro[3.3]heptan-6-yl-[4-[[3-(3-fluoro-4-methoxyphenyl)imidazo[1,2-a]pyrazin-8-yl]amino]-2-methylphenyl]methanone; 2,2,2-trifluoroacetic acid], the IC90 is 1100 nM. As for `COc1ccc(-c2cnc3c(Nc4ccc(C(=O)N5CCC(CNCC(=O)O)CC5)c(C)c4)nccn23)cc1` [Example 431, formic acid; 2-[[1-[4-[[3-(4-methoxyphenyl)imidazo[1,2-a]pyrazin-8-yl]amino]-2-methylbenzoyl]piperidin-4-yl]methylamino]acetic acid], the IC90 is 1500 nM. For the compound `COc1ccc(-c2cnc3c(Nc4ccc(C(=O)N5CCN(C(=O)N6CCN[C@@H](C(=O)O)C6)CC5)c(C)c4)nccn23)c(F)c1F` [Example 436, (2R)-4-[4-[4-[[3-(2,3-difluoro-4-methoxyphenyl)imidazo[1,2-a]pyrazin-8-yl]amino]-2-methylbenzoyl]piperazine-1-carbonyl]piperazine-2-carboxylic acid; formic acid], the IC90 was 760 nM. Turning to `Cc1cc(Nc2nccn3c(-c4ccc(OC(F)F)cc4)cnc23)ccc1C(=O)N1CCN(C(=O)[C@@H](N)Cc2cnc[nH]2)CC1` [Example 437, (2S)-2-amino-1-[4-[4-[[3-[4-(difluoromethoxy)phenyl]imi-dazo[1,2-a]pyrazin-8-yl]amino]-2-methylbenzoyl]piperazin-1-yl]-3-(1H-imidazol-5-yl)propan-1-one; hydrochloride], the IC90 came to 770 nM. Regarding `Cc1cc(Nc2nccn3c(-c4ccc(OC(F)F)cc4)cnc23)ccc1C(=O)N1CCN(C(=O)[C@@H]2CNCCN2)CC1` [Example 441, [4-[[3-[4-(difluoromethoxy)phenyl]imi-dazo[1,2-a]pyrazin-8-yl]amino]-2-methylphenyl]-[4-[(2S)-piperazine-2-carbonyl]piperazin-1-yl]methanone; hydrochloride], the IC90 stood at 1200 nM.

Regarding `COC(=O)CC[C@H](N)C(=O)N1CCN(C(=O)c2ccc(Nc3nccn4c(-c5ccc(OC(F)F)cc5)cnc34)cc2C)CC1` [Example 444, methyl (4S)-4-amino-5-[4-[4-[[3-[4-(difluoromethoxy)phenyl]imi-dazo[1,2-a]pyrazin-8-yl]amino]-2-methylbenzoyl]piperazin-1-yl]-5-oxopentanoate; hydrochloride], the IC90 was determined as 1900 nM. `Cc1cc(Nc2nccn3c(-c4ccc(OC(F)F)cc4)cnc23)ccc1C(=O)N1CCN(C(=O)N2CCN[C@@H](C(=O)O)C2)CC1` [Example 445, (2R)-4-[4-[4-[[3-[4-(difluoromethoxy)phenyl]imi-dazo[1,2-a]pyrazin-8-yl]amino]-2-methylbenzoyl]piperazine-1-carbonyl]piperazine-2-carboxylic acid; hydrochloride]: the IC90 was determined as 1900 nM.
